Test results reported in PubChem BioAssay (NCI).
“And” between values parts separate entries of the source, which are not always exact repeats. Identical values can stand only once.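 Interpolation was linear, between the two tested concentrations surrounding the appropriate level; five concentrations were tested over 48 hours in 96-well plates. Here, GI50 denotes the concentration required for 50% inhibition of growth. At the TGI there is no net growth.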

How the values were obtained:
Test in all cases: DTP human tumour cell line panel, 48 h
MDA-N = tested on: MDA-N
NCI/ADR-RES ovarian = tested on: NCI/ADR-RES ovarian
T-47D breast = tested on: T-47D breast
DMS 114 small cell lung = tested on: DMS 114 small cell lung
DLD-1 colon = tested on: DLD-1 colon
DMS 273 small cell lung = tested on: DMS 273 small cell lung
XF 498 CNS = tested on: XF 498 CNS
LXFL 529 NSCLC = tested on: LXFL 529 NSCLC
RXF-631 renal = tested on: RXF-631 renal

SMILES | GI50 (NCI/ADR-RES ovarian) | TGI (NCI/ADR-RES ovarian) | GI50 (T-47D breast) | TGI (T-47D breast) | other results
CCCC(=O)Nc1cn(COC)c(C(=O)N2C[C@@H]3C[C@]34C2=CC(=O)c2[nH]cc(C)c24)n1 | 14.9 µM | 20.7 µM and 28.9 µM | 7.01 µM | 38.4 µM and 21.1 µM | GI50 (MDA-N): 12.7 µM; TGI (MDA-N): 19.3 µM and 31.3 µM
CCC[CH2][Sn]([CH2]CCC)([O]C(=O)c1ccc(OC)c(OC)c1OC)[O][Sn]([CH2]CCC)([CH2]CCC)[O]C(=O)c1ccc(OC)c(OC)c1OC | 0.843 µM | 2.14 µM | 0.0311 µM | 0.295 µM | GI50 (MDA-N): 0.357 µM; TGI (MDA-N): 1.66 µM; GI50 (DMS 114 small cell lung): 0.0281 µM; TGI (DMS 114 small cell lung): 0.171 µM; GI50 (DLD-1 colon): 0.147 µM; TGI (DLD-1 colon): 0.419 µM; GI50 (DMS 273 small cell lung): 0.334 µM; TGI (DMS 273 small cell lung): 1.54 µM; GI50 (XF 498 CNS): 0.104 µM; TGI (XF 498 CNS): 0.229 µM; GI50 (LXFL 529 NSCLC): 0.02 µM; TGI (LXFL 529 NSCLC): 0.0938 µM
COc1cc(N=Nc2ccc(O)c3ncccc23)c2ncccc2c1 | 1.02 µM | 15.5 µM | 3.23 µM | > 100 µM | 
O=C(Nc1ccc(Br)cc1F)c1cc(Cl)ccc1O | 0.749 µM | 5.67 µM | 0.466 µM | 4.83 µM | 
C[C@@H]1C[C@@H]([C@@H](CC2CC(=O)NC(=O)C2)OC(=O)CC(=O)c2ccccc2)C(=O)[C@@H](C)C1 | 0.689 µM | > 100 µM | 0.554 µM | > 29.4 µM | 
COc1ccc2nc3ccccc3c(NCc3ccc(F)cc3)c2c1 | 1.82 µM | 8.24 µM | 3.11 µM | 13.6 µM | 
On1c(-c2ccccc2)c(-c2ccccc2N2CCCC2)c2ccccc21 |  |  |  |  | TGI (DMS 114 small cell lung): > 100 µM; TGI (DLD-1 colon): > 100 µM; TGI (DMS 273 small cell lung): > 100 µM; TGI (XF 498 CNS): > 100 µM
O=C(OC1CCC(=C2SCCCS2)[C@H]1C1SCCCS1)c1ccccc1 (some centres not stated) |  |  |  |  | TGI (DMS 114 small cell lung): > 100 µM; TGI (DLD-1 colon): > 100 µM; TGI (DMS 273 small cell lung): > 100 µM; TGI (LXFL 529 NSCLC): > 100 µM; TGI (RXF-631 renal): > 100 µM
Cc1cc(N[C@@H]2CCC[C@H](Nc3ccnc4cc(Cl)ccc34)C2)nc(N2CCCCCC2)n1 | 1.69 µM | 3.9 µM | 2.22 µM | 5.38 µM | 
CC(=O)Nc1ccc(-c2csc(Nc3cccc(-c4csc(C)n4)c3)n2)cc1 | 0.642 µM | 6.84 µM | 2.65 µM | > 43.2 µM | 
COc1ccc(-c2nnc3n(C)c(=O)c4ccccc4n23)cc1N | 0.0656 µM | > 100 µM |  |  | 
O=C(Cc1ccc(F)c(Cl)c1)Nc1cc(C2(C(F)(F)F)CC2)nn1CC1CCCCC1 | 3.88 µM | > 15 µM | 3.78 µM | 13.6 µM | 
O=C(/C(=C/c1ccc(Cl)cc1)c1ccccc1)c1ccccc1 |  |  |  |  | TGI (DMS 114 small cell lung): 37.2 µM; TGI (DLD-1 colon): 31.8 µM; TGI (XF 498 CNS): 34.5 µM; TGI (LXFL 529 NSCLC): 33.7 µM
CN1C(=O)c2ccccc2NC(=O)C12O[C@@H]2c1ccccc1 (some centres not stated) |  | > 100 µM |  | > 100 µM | TGI (MDA-N): > 100 µM
COc1ccc(-c2ccc(=O)oc2C#Cc2cc(OC)c(OC)c(OC)c2)cc1O | 0.262 µM | > 43.8 µM | 6.4 µM | > 100 µM | 
CC(NCCC(c1ccccc1)c1ccccc1)c1ccccc1 (configuration not stated) | 2.77 µM | 7.68 µM | 1.59 µM | 3.29 µM | 
Cc1c(N(C)C)ccc2c(=O)c3cccc(CC(=O)O)c3oc12 |  | > 100 µM |  | > 100 µM | TGI (MDA-N): > 100 µM; TGI (DMS 114 small cell lung): > 100 µM; TGI (DLD-1 colon): > 100 µM; TGI (DMS 273 small cell lung): > 100 µM; TGI (RXF-631 renal): > 100 µM
O=C(Nc1cccc(C(F)(F)F)c1)c1ccc(NC2=C(Cl)C(=O)N(Cc3ccc(Cl)cc3Cl)C2=O)cc1 |  |  | 2.8 µM | > 100 µM | 

SMILES | GI50 (NCI/ADR-RES ovarian) | TGI (NCI/ADR-RES ovarian) | GI50 (T-47D breast) | TGI (T-47D breast) | other results
O=C(c1ccco1)c1c(C(F)(F)F)nc2ccc(Cl)cc2[n+]1[O-] | > 100 µM | > 100 µM | > 100 µM | > 100 µM | 
CCOC(=O)Nc1cc2c(c(N)n1)N=C(c1ccccc1)CO2 | 0.061 µM | 21.5 µM | 20.4 µM | 73.3 µM | 
Cc1nc(N)sc1N=Nc1ccccc1Br |  | 72.5 µM |  | 57.2 µM | TGI (MDA-N): 64.7 µM
O=C(NC[C@H](O)CN1CCc2ccccc2C1)c1cc(NC2COC2)ncn1 | 15.9 µM | 57.9 µM | 9.26 µM | > 100 µM | 
C/C(CC(=O)Nc1ccc(C)c(C)c1)=N\N(c1ccccc1)c1ccccc1 |  |  |  |  | TGI (DMS 114 small cell lung): 33.2 µM; TGI (DLD-1 colon): > 100 µM; TGI (DMS 273 small cell lung): 33.5 µM; TGI (XF 498 CNS): > 100 µM; TGI (LXFL 529 NSCLC): > 100 µM
NC(N)=N/N=C/c1c(Cl)cccc1Cl | 28.9 µM | > 100 µM | 14.7 µM | 39.6 µM | 
COc1cc(C(=O)N2CCN(C(=O)c3cc(OC)c(OC)c(OC)c3)C2=S)cc(OC)c1OC | 26.8 µM | 74.5 µM | 13.1 µM | 40.3 µM | GI50 (MDA-N): 15 µM; TGI (MDA-N): 33.9 µM
O=C(Nc1cc(C(F)(F)F)cc(C(F)(F)F)c1)c1cc(Cl)ccc1O | 0.227 µM and 0.257 µM | > 2.76 µM and 3.87 µM | 0.15 µM and 0.194 µM | 0.604 µM and 1.24 µM | 
NC(N)=NCCCC(=O)O |  | > 100 µM |  | > 100 µM | TGI (MDA-N): > 100 µM
CN(C)C1CCN(C(=O)c2ccc(NC(=O)Nc3ccc(-c4nc(N5CCOCC5)c5cccn5n4)cc3)cc2)CC1 | 59.5 µM | > 100 µM | 0.0134 µM | 0.0664 µM | 
CC1(C)OC2C(CO[Si](C)(C)C(C)(C)C)OC(n3c(I)c(C#C[Si](C)(C)C)c(=O)[nH]c3=O)C2O1 (configuration not stated) | 20.4 µM | 58.3 µM | 10.5 µM | 26.4 µM | 
COC(=O)C1CCCC2(C1)OCCO2 (configuration not stated) |  |  |  |  | TGI (DMS 114 small cell lung): > 100 µM; TGI (DLD-1 colon): > 100 µM; TGI (DMS 273 small cell lung): > 100 µM; TGI (LXFL 529 NSCLC): > 100 µM; TGI (RXF-631 renal): > 100 µM
CCOc1ccc(/C=C2\N=C(c3ccc([N+](=O)[O-])cc3)OC2=O)cc1 |  |  |  | > 100 µM | TGI (MDA-N): > 100 µM
CC(C)(/C=C(\C#N)C(=O)N1CCC[C@@H](n2nc(-c3ccc(Oc4ccccc4)cc3F)c3c(N)ncnc32)C1)N1CCN(C2COC2)CC1 | 14.7 µM | 43.7 µM | 4.77 µM | 29.5 µM | 
CCN(CC)CCNc1nc(N)c(C#N)c(C#N)c1C#N |  | > 10 µM |  | > 10 µM | TGI (MDA-N): > 10 µM
CC(C)(C)c1cc(C(P(=O)(O)O)P(=O)(O)O)cc(C(C)(C)C)c1O |  |  |  |  | TGI (DMS 114 small cell lung): > 100 µM; TGI (DLD-1 colon): > 100 µM; TGI (DMS 273 small cell lung): > 100 µM; TGI (LXFL 529 NSCLC): > 100 µM
N=c1c2c(-c3ccccc3)c(-c3ccccc3)n(Cc3ccccc3)c2ncn1C1CCC(O)CC1 (configuration not stated) | 0.717 µM | 18.4 µM | 0.911 µM | 18.3 µM | 
